Measured values taken from the NIST ThermoML archive (doi:10.1016/j.jct.2012.08.030).
± gives the expanded uncertainty stated by the source.

What was measured:
[1] = xn = mol fraction of the nth substance listed; settings: 101.3 kPa, Liquid; for speed of sound: Sing-around technique in a fixed-path interferometer; for mass density: Vibrating tube method
[2] = refractive index (Na D-line) (dimensionless); xn = mol fraction of the nth substance listed; settings: 101.3 kPa, Liquid, Standard Abbe refractometry

## CCCCn1cc[n+](C)c1.COS(=O)(=O)[O-] [1-butyl-3-methylimidazolium methyl sulfate] + CCCO
[1]; 298.15 K, x1 = 0.0482
  speed of sound: 1242.8 ± 0.89 m/s
  mass density: 852.432 ± 0.25 kg/m3
[1]; 298.15 K, x1 = 0.0965
  speed of sound: 1276 ± 0.99 m/s
  mass density: 896.455 ± 0.22 kg/m3
[1]; 298.15 K, x1 = 0.1937
  speed of sound: 1338.1 ± 1.2 m/s
  mass density: 967.583 ± 0.26 kg/m3
[1]; 298.15 K, x1 = 0.2929
  speed of sound: 1394.2 ± 1.4 m/s
  mass density: 1023.11 ± 0.37 kg/m3
[1]; 298.15 K, x1 = 0.3903
  speed of sound: 1443.9 ± 1.6 m/s
  mass density: 1066.53 ± 0.56 kg/m3
[1]; 298.15 K, x1 = 0.4958
  speed of sound: 1491.7 ± 1.9 m/s
  mass density: 1104.3 ± 0.81 kg/m3
[1]; 298.15 K, x1 = 0.59
  speed of sound: 1529.8 ± 2.1 m/s
  mass density: 1132.04 ± 1.1 kg/m3
[1]; 298.15 K, x1 = 0.6907
  speed of sound: 1566.3 ± 2.4 m/s
  mass density: 1156.89 ± 1.4 kg/m3
[1]; 298.15 K, x1 = 0.7981
  speed of sound: 1601.1 ± 2.6 m/s
  mass density: 1179.34 ± 1.9 kg/m3
[1]; 298.15 K, x1 = 0.8932
  speed of sound: 1629 ± 2.8 m/s
  mass density: 1196.47 ± 2.3 kg/m3
[1]; 298.15 K, x1 = 0.951
  speed of sound: 1643.1 ± 3 m/s
  mass density: 1205.24 ± 2.6 kg/m3
[1]; 298.15 K, x1 = 1
  speed of sound: 1654.6 ± 3.1 m/s
  mass density: 1212.06 ± 2.8 kg/m3
[1]; 303.15 K, x1 = 0.0482
  speed of sound: 1227 ± 0.89 m/s
  mass density: 848.503 ± 0.25 kg/m3
[1]; 303.15 K, x1 = 0.1937
  speed of sound: 1323.8 ± 1.2 m/s
  mass density: 963.817 ± 0.26 kg/m3
[1]; 303.15 K, x1 = 0.2929
  speed of sound: 1380.5 ± 1.4 m/s
  mass density: 1019.43 ± 0.37 kg/m3
[1]; 303.15 K, x1 = 0.3903
  speed of sound: 1430.6 ± 1.6 m/s
  mass density: 1062.93 ± 0.55 kg/m3
[1]; 303.15 K, x1 = 0.4958
  speed of sound: 1478.8 ± 1.9 m/s
  mass density: 1100.77 ± 0.81 kg/m3
[1]; 303.15 K, x1 = 0.59
  speed of sound: 1517.2 ± 2.1 m/s
  mass density: 1128.56 ± 1.1 kg/m3
[1]; 303.15 K, x1 = 0.6907
  speed of sound: 1553.9 ± 2.4 m/s
  mass density: 1153.44 ± 1.4 kg/m3
[1]; 303.15 K, x1 = 0.7981
  speed of sound: 1588.9 ± 2.6 m/s
  mass density: 1175.92 ± 1.9 kg/m3
[1]; 303.15 K, x1 = 0.8932
  speed of sound: 1616.9 ± 2.8 m/s
  mass density: 1192.93 ± 2.3 kg/m3
[1]; 303.15 K, x1 = 0.951
  speed of sound: 1630.9 ± 3 m/s
  mass density: 1201.87 ± 2.6 kg/m3
[1]; 303.15 K, x1 = 1
  speed of sound: 1642.2 ± 3.1 m/s
  mass density: 1208.7 ± 2.8 kg/m3
[1]; 303.15 K, x1 = 0.0965
  mass density: 892.596 ± 0.22 kg/m3
[1]; 308.15 K, x1 = 0.0482
  speed of sound: 1211.1 ± 0.88 m/s
  mass density: 844.545 ± 0.25 kg/m3
[1]; 308.15 K, x1 = 0.0965
  speed of sound: 1245.5 ± 0.98 m/s
  mass density: 888.716 ± 0.22 kg/m3
[1]; 308.15 K, x1 = 0.1937
  speed of sound: 1309.3 ± 1.2 m/s
  mass density: 960.044 ± 0.26 kg/m3
[1]; 308.15 K, x1 = 0.2929
  speed of sound: 1366.6 ± 1.4 m/s
  mass density: 1015.75 ± 0.36 kg/m3
[1]; 308.15 K, x1 = 0.3903
  speed of sound: 1417.3 ± 1.6 m/s
  mass density: 1059.34 ± 0.55 kg/m3
[1]; 308.15 K, x1 = 0.4958
  speed of sound: 1465.8 ± 1.9 m/s
  mass density: 1097.25 ± 0.8 kg/m3
[1]; 308.15 K, x1 = 0.59
  speed of sound: 1504.5 ± 2.1 m/s
  mass density: 1125.08 ± 1.1 kg/m3
[1]; 308.15 K, x1 = 0.6907
  speed of sound: 1541.4 ± 2.4 m/s
  mass density: 1150 ± 1.4 kg/m3
[1]; 308.15 K, x1 = 0.7981
  speed of sound: 1576.5 ± 2.6 m/s
  mass density: 1172.52 ± 1.8 kg/m3
[1]; 308.15 K, x1 = 0.8932
  speed of sound: 1604.7 ± 2.8 m/s
  mass density: 1189.33 ± 2.3 kg/m3
[1]; 308.15 K, x1 = 0.951
  speed of sound: 1618.7 ± 3 m/s
  mass density: 1198.5 ± 2.6 kg/m3
[1]; 308.15 K, x1 = 1
  speed of sound: 1630 ± 3.1 m/s
  mass density: 1205.35 ± 2.8 kg/m3
[1]; 313.15 K, x1 = 0.0482
  speed of sound: 1195.2 ± 0.88 m/s
  mass density: 840.564 ± 0.25 kg/m3
[1]; 313.15 K, x1 = 0.0965
  speed of sound: 1230.2 ± 0.98 m/s
  mass density: 884.815 ± 0.23 kg/m3
[1]; 313.15 K, x1 = 0.1937
  speed of sound: 1294.9 ± 1.2 m/s
  mass density: 956.26 ± 0.26 kg/m3
[1]; 313.15 K, x1 = 0.2929
  speed of sound: 1352.8 ± 1.4 m/s
  mass density: 1012.08 ± 0.36 kg/m3
[1]; 313.15 K, x1 = 0.3903
  speed of sound: 1404 ± 1.6 m/s
  mass density: 1055.75 ± 0.54 kg/m3
[1]; 313.15 K, x1 = 0.4958
  speed of sound: 1453 ± 1.9 m/s
  mass density: 1093.74 ± 0.8 kg/m3
[1]; 313.15 K, x1 = 0.59
  speed of sound: 1492 ± 2.1 m/s
  mass density: 1121.62 ± 1.1 kg/m3
[1]; 313.15 K, x1 = 0.6907
  speed of sound: 1529.1 ± 2.4 m/s
  mass density: 1146.58 ± 1.4 kg/m3
[1]; 313.15 K, x1 = 0.7981
  speed of sound: 1564.4 ± 2.6 m/s
  mass density: 1169.13 ± 1.8 kg/m3
[1]; 313.15 K, x1 = 0.8932
  speed of sound: 1592.5 ± 2.8 m/s
  mass density: 1185.78 ± 2.3 kg/m3
[1]; 313.15 K, x1 = 0.951
  speed of sound: 1606.6 ± 3 m/s
  mass density: 1195.15 ± 2.5 kg/m3
[1]; 313.15 K, x1 = 1
  speed of sound: 1617.9 ± 3.1 m/s
  mass density: 1202.01 ± 2.8 kg/m3
[2]; 298.15 K, x1 = 0.0482
  refractive index: 1.39591 ± 0.00033
[2]; 298.15 K, x1 = 0.0965
  refractive index: 1.40632 ± 0.00034
[2]; 298.15 K, x1 = 0.1937
  refractive index: 1.42298 ± 0.00037
[2]; 298.15 K, x1 = 0.2929
  refractive index: 1.43588 ± 0.0004
[2]; 298.15 K, x1 = 0.3903
  refractive index: 1.44583 ± 0.00043
[2]; 298.15 K, x1 = 0.4958
  refractive index: 1.45448 ± 0.00047
[2]; 298.15 K, x1 = 0.59
  refractive index: 1.46078 ± 0.0005
[2]; 298.15 K, x1 = 0.6907
  refractive index: 1.46636 ± 0.00054
[2]; 298.15 K, x1 = 0.7981
  refractive index: 1.47134 ± 0.00059
[2]; 298.15 K, x1 = 0.8932
  refractive index: 1.47515 ± 0.00063
[2]; 298.15 K, x1 = 0.951
  refractive index: 1.4776 ± 0.00065
[2]; 298.15 K, x1 = 1
  refractive index: 1.47824 ± 0.00068
[2]; 303.15 K, x1 = 0.0482
  refractive index: 1.39407 ± 0.00033
[2]; 303.15 K, x1 = 0.0965
  refractive index: 1.40459 ± 0.00034
[2]; 303.15 K, x1 = 0.1937
  refractive index: 1.42138 ± 0.00037
[2]; 303.15 K, x1 = 0.2929
  refractive index: 1.43433 ± 0.0004
[2]; 303.15 K, x1 = 0.3903
  refractive index: 1.44433 ± 0.00043
[2]; 303.15 K, x1 = 0.4958
  refractive index: 1.45302 ± 0.00047
[2]; 303.15 K, x1 = 0.59
  refractive index: 1.45937 ± 0.0005
[2]; 303.15 K, x1 = 0.6907
  refractive index: 1.46499 ± 0.00054
[2]; 303.15 K, x1 = 0.7981
  refractive index: 1.46997 ± 0.00059
[2]; 303.15 K, x1 = 0.8932
  refractive index: 1.47378 ± 0.00063
[2]; 303.15 K, x1 = 0.951
  refractive index: 1.47628 ± 0.00065
[2]; 303.15 K, x1 = 1
  refractive index: 1.47704 ± 0.00068
[2]; 308.15 K, x1 = 0.0482
  refractive index: 1.39212 ± 0.00033
[2]; 308.15 K, x1 = 0.0965
  refractive index: 1.40276 ± 0.00034
[2]; 308.15 K, x1 = 0.1937
  refractive index: 1.41966 ± 0.00037
[2]; 308.15 K, x1 = 0.2929
  refractive index: 1.43273 ± 0.0004
[2]; 308.15 K, x1 = 0.3903
  refractive index: 1.4428 ± 0.00043
[2]; 308.15 K, x1 = 0.4958
  refractive index: 1.45154 ± 0.00047
[2]; 308.15 K, x1 = 0.59
  refractive index: 1.45793 ± 0.0005
[2]; 308.15 K, x1 = 0.6907
  refractive index: 1.46358 ± 0.00054
[2]; 308.15 K, x1 = 0.7981
  refractive index: 1.46856 ± 0.00059
[2]; 308.15 K, x1 = 0.8932
  refractive index: 1.47238 ± 0.00063
[2]; 308.15 K, x1 = 0.951
  refractive index: 1.47491 ± 0.00065
[2]; 308.15 K, x1 = 1
  refractive index: 1.47577 ± 0.00068
[2]; 313.15 K, x1 = 0.0482
  refractive index: 1.39019 ± 0.00033
[2]; 313.15 K, x1 = 0.0965
  refractive index: 1.4009 ± 0.00034
[2]; 313.15 K, x1 = 0.1937
  refractive index: 1.41794 ± 0.00037
[2]; 313.15 K, x1 = 0.2929
  refractive index: 1.43111 ± 0.0004
[2]; 313.15 K, x1 = 0.3903
  refractive index: 1.44126 ± 0.00043
[2]; 313.15 K, x1 = 0.4958
  refractive index: 1.45008 ± 0.00047
[2]; 313.15 K, x1 = 0.59
  refractive index: 1.45649 ± 0.0005
[2]; 313.15 K, x1 = 0.6907
  refractive index: 1.46215 ± 0.00054
[2]; 313.15 K, x1 = 0.7981
  refractive index: 1.46715 ± 0.00059
[2]; 313.15 K, x1 = 0.8932
  refractive index: 1.4709 ± 0.00063
[2]; 313.15 K, x1 = 0.951
  refractive index: 1.47354 ± 0.00065
[2]; 313.15 K, x1 = 1
  refractive index: 1.47443 ± 0.00068
